# From US20260041093A1, “Ionic Derivatives Of Aromatic Carboxylic Acid For Use As Plant Stimulants, Method For Stimulating Plants And Use Of These Derivatives For Manufacturing Compositions For Stimulating Plants” (FUNDACJA UNIWERSYTETU IM. ADAMA MICKIEWICZA W POZNANIU, priority 2022, published 2026)
# Where two headings read alike, the source gives them in different places.
# Legend:
# tulip = assay: Tulip bulbs in peat watered with working solution: height, stem diameter, weights, root length, flowering, vigor (Example 1); format: in vivo; details: 80 mg/L, benzothiadiazole salt 30 mg/L; for Vigor [on a scale from 1 to 5]: 1 is a laying plant, 5 is a stiff plant; for Average plant height, initial height, first treatment: before 1st watering; for Average plant height, second treatment: before 2nd watering; for Average plant height, third treatment: before 3rd watering; for Average plant height, fourth treatment: before 4th watering; for Average plant height, 20 days after the 4th treatment: end of experiment
# Description: Control plants were watered with distilled water. During the conducted experiment, plant height was measured before each treatment. Flowering length and plant vigor were also studied. After 20 days from the end of the last treatment, the fresh and dry weight of aboveground parts and roots, and root length were assessed.
# winter rapeseed = details: for increase in calcium uptake / increase in magnesium uptake / increase in nitrogen uptake / increase in phosphorus uptake / increase in potassium uptake / higher fat content / increase in fat content / seed yields higher compared to control / more biomass (dry weight) compared to control / more biomass (fresh weight) compared to control / more aboveground dry matter compared to control / more dry weight compared to control, on average / more fresh weight compared to control, on average / weight of one thousand seeds higher compared to control / more chlorophyll in the leaves (SPAD) compared to control: 80 mg/L, benzothiadiazole salt 25 mg/L; for chlorophyll content, differences between the tested objects: first measurement date; for more biomass (dry weight) compared to control / more biomass (fresh weight) compared to control: first sampling date, stimulant at BBCH 31-32, no fungicide yet; for more aboveground dry matter compared to control: last harvest date, fully ripe; for more dry weight compared to control, on average / more fresh weight compared to control, on average: second date, regardless of cultivation technology; for weight of one thousand seeds higher compared to control: tested combinations
# Excerpt: The experiment was established using the long strip method in four repetitions. The dimensions of the plots at establishment were 96 m^2 gross, while the harvestable area was 23.25 m^2 net.
# In the experiment, uniform NPK fertilization was applied, using both bulk and liquid fertilizers.
# The following facilities were included in the experiment: • 1. control, no stimulant application, standard fungicide protection • 2. stimulant applied at stage 31-32 according to the BBCH development scale, standard fungicide protection • 3. stimulant applied at stage 53-55 according to the BBCH development scale, no fungicide protection
# broccoli = assay: Broccoli seedlings in pots sprayed: height, fresh and dry weight (Example 4); format: in vivo
# Description: Broccoli seedling were planted into pots with peat substrate (P9 pots having 0.5 l). Pots were placed in greenhouse and cultivated for a 1 month. […] 2-fluoroethyl(trimethyl)ammonium benzo[1,2,3]thiadiazole-7-carboxylate; 3. 2-bromoethyl(trimethyl)ammonium benzo[1,2,3]thiadiazole-7-carboxylate; 4. 2-chloroethyl(trimethyl)ammonium benzo[1,2,3]thiadiazole-7-carboxylate; 5. 2-iodoethyl(trimethyl)ammonium benzo[1,2,3]thiadiazole-7-carboxylate used at a concentration of 30 mg/L and 6. 2-hydroxyethyl(trimethyl)ammonium 3-chlorosalicylate (tested also at a concentration of 50 mg/L); 7. 3-chlorosalicylate 2-fluoroethyl(trimethyl)ammonium; 8. 3-chlorosalicylate 2-bromoethyl(trimethyl)ammonium; 9. 3-chlorosalicylate 2-chloroethyl(trimethyl)ammonium; 10. 3-chlorosalicylate 2-iodoethyl(trimethyl)ammonium used at a concentration of 80 mg/L. Plants were sprayed with tested substances three times at 10-day intervals. Plants treated with water only were the untreated control. During the course of the experiment, the height of the plants was measured, and at the end the fresh and dry weight of the aboveground part was evaluated. The experiment was conducted in 4 repetitions with 5 plants in each (a total of 20 plants per each combination).
# [1] = Table 2, 20 days after last treatment
# [2] = Table 3 (title: tulip bulbs / root system)
# [3] = BBCH 32, standard fungicide protection
# [4] = BBCH 55, standard fungicide protection
# [5] = both fungicide and stimulant treatments
# [6] = with a fungicide, printed 'first date' (of second and third measurement dates)
# [7] = with a fungicide, printed 'second date'
# [8] = without a fungicide, printed 'first date'
# [9] = without a fungicide, printed 'second date'
# [10] = without fungicide protection, stimulant at BBCH 31-32
# [11] = 3-chlorosalicylate 80 mg/L, benzothiadiazole salt 30 mg/L
smiles,measurement,setting,value
C[N+](C)(C)CCO.O=C([O-])c1cccc2nnsc12,Average stem diameter at the end of the experiment 20 days after the 4th treatment,tulip,8.3 b mm
same,Flowering length,tulip,23 days
same,Root length,tulip,84.7 b mm
same,Vigor [on a scale from 1 to 5],tulip,4.9 b
same,Average dry weight of the above-ground part,tulip; [1],44.1 b g
same,Average fresh weight of the above-ground part,tulip; [1],435.7 b g
same,Average dry weight of the above-ground part,tulip; [2],5.7 b g
same,Average fresh weight of the above-ground part,tulip; [2],61.0 b g
same,"Average plant height, initial height, first treatment",tulip,46.4 a mm
same,"Average plant height, second treatment",tulip,133.6 b mm
same,"Average plant height, third treatment",tulip,271.2 b mm
same,"Average plant height, fourth treatment",tulip,375.6 b mm
same,"Average plant height, 20 days after the 4th treatment",tulip,518.0 b mm
same,increase in calcium uptake,winter rapeseed; [3],5%
same,increase in magnesium uptake,winter rapeseed; [3],5%
same,increase in nitrogen uptake,winter rapeseed; [3],5%
same,increase in phosphorus uptake,winter rapeseed; [3],5%
same,increase in potassium uptake,winter rapeseed; [3],6%
same,increase in calcium uptake,"winter rapeseed; BBCH 32, stimulant only",9%
same,increase in magnesium uptake,"winter rapeseed; BBCH 32, stimulant only",11%
same,increase in nitrogen uptake,"winter rapeseed; BBCH 32, stimulant only",8%
same,increase in phosphorus uptake,"winter rapeseed; BBCH 32, stimulant only",9%
same,increase in potassium uptake,"winter rapeseed; BBCH 32, stimulant only",7%
same,higher fat content,"winter rapeseed; BBCH 32, with fungicide",6%
same,higher fat content,"winter rapeseed; BBCH 32, without fungicide",8%
same,increase in calcium uptake,winter rapeseed; [4],10%
same,increase in fat content,winter rapeseed; [4],6%
same,increase in magnesium uptake,winter rapeseed; [4],9%
same,increase in nitrogen uptake,winter rapeseed; [4],9%
same,increase in phosphorus uptake,winter rapeseed; [4],11%
same,increase in potassium uptake,winter rapeseed; [4],8%
same,increase in calcium uptake,"winter rapeseed; BBCH 55, without fungicide",9%
same,increase in fat content,"winter rapeseed; BBCH 55, without fungicide",increase
same,increase in magnesium uptake,"winter rapeseed; BBCH 55, without fungicide",13%
same,increase in nitrogen uptake,"winter rapeseed; BBCH 55, without fungicide",12%
same,increase in phosphorus uptake,"winter rapeseed; BBCH 55, without fungicide",9%
same,increase in potassium uptake,"winter rapeseed; BBCH 55, without fungicide",8%
same,seed yields higher compared to control,winter rapeseed; [5],12%
same,"chlorophyll content, differences between the tested objects",winter rapeseed,no differences were observed
same,more biomass (dry weight) compared to control,winter rapeseed,29%
same,more biomass (fresh weight) compared to control,winter rapeseed,28%
same,more aboveground dry matter compared to control,winter rapeseed; only the stimulant,32%
same,more aboveground dry matter compared to control,winter rapeseed; with fungicide protection,38%
same,"more dry weight compared to control, on average",winter rapeseed,26%
same,"more fresh weight compared to control, on average",winter rapeseed,24%
same,weight of one thousand seeds higher compared to control,winter rapeseed,12%
same,more chlorophyll in the leaves (SPAD) compared to control,winter rapeseed; [6],6%
same,more chlorophyll in the leaves (SPAD) compared to control,winter rapeseed; [7],8%
same,more chlorophyll in the leaves (SPAD) compared to control,winter rapeseed; [8],8%
same,more chlorophyll in the leaves (SPAD) compared to control,winter rapeseed; [9],12%
same,seed yields higher compared to control,winter rapeseed; [10],9%
same,Average dry mass,broccoli; [11],0.7 b g
same,Average fresh mass,broccoli; [11],7.8 c g
same,"Average plant height, initial height, before first treatment",broccoli; [11],39.2 c mm
same,"Average plant height, second treatment",broccoli; [11],187.2 b mm
same,"Average plant height, third treatment",broccoli; [11],215.7 b mm
same,Plant height increase,broccoli; [11],176.5 b mm
same,number of leaves developed,"broccoli; FIG. 2, treated once, 5 mg/L, control plant developed 3 leaves",4
C[N+](C)(C)CCO.O=C([O-])c1cccc(Cl)c1O [choline 3-chlorosalicylate],Average stem diameter at the end of the experiment 20 days after the 4th treatment,tulip,8.1 b mm
same,Flowering length,tulip,23 days
same,Root length,tulip,84.3 b mm
same,Vigor [on a scale from 1 to 5],tulip,4.8 b
same,Average dry weight of the above-ground part,tulip; [1],41.8 b g
same,Average fresh weight of the above-ground part,tulip; [1],443.8 b g
same,Average dry weight of the above-ground part,tulip; [2],5.6 b g
same,Average fresh weight of the above-ground part,tulip; [2],59.5 b g
same,"Average plant height, initial height, first treatment",tulip,45.7 a mm
same,"Average plant height, second treatment",tulip,130.5 b mm
same,"Average plant height, third treatment",tulip,257.4 b mm
same,"Average plant height, fourth treatment",tulip,369.1 b mm
same,"Average plant height, 20 days after the 4th treatment",tulip,510.9 b mm
same,increase in calcium uptake,winter rapeseed; [3],5%
same,increase in magnesium uptake,winter rapeseed; [3],4%
same,increase in nitrogen uptake,winter rapeseed; [3],6%
same,increase in phosphorus uptake,winter rapeseed; [3],7%
same,increase in potassium uptake,winter rapeseed; [3],6%
same,increase in calcium uptake,"winter rapeseed; BBCH 32, stimulant only",8%
same,increase in magnesium uptake,"winter rapeseed; BBCH 32, stimulant only",12%
same,increase in nitrogen uptake,"winter rapeseed; BBCH 32, stimulant only",9%
same,increase in phosphorus uptake,"winter rapeseed; BBCH 32, stimulant only",7%
same,increase in potassium uptake,"winter rapeseed; BBCH 32, stimulant only",8%
same,higher fat content,"winter rapeseed; BBCH 32, with fungicide",6%
same,higher fat content,"winter rapeseed; BBCH 32, without fungicide",8%
same,increase in calcium uptake,winter rapeseed; [4],9%
same,increase in fat content,winter rapeseed; [4],6%
same,increase in magnesium uptake,winter rapeseed; [4],10%
same,increase in nitrogen uptake,winter rapeseed; [4],11%
same,increase in phosphorus uptake,winter rapeseed; [4],10%
same,increase in potassium uptake,winter rapeseed; [4],8%
same,increase in calcium uptake,"winter rapeseed; BBCH 55, without fungicide",10%
same,increase in fat content,"winter rapeseed; BBCH 55, without fungicide",5%
same,increase in magnesium uptake,"winter rapeseed; BBCH 55, without fungicide",12%
same,increase in nitrogen uptake,"winter rapeseed; BBCH 55, without fungicide",11%
same,increase in phosphorus uptake,"winter rapeseed; BBCH 55, without fungicide",10%
same,increase in potassium uptake,"winter rapeseed; BBCH 55, without fungicide",7%
same,seed yields higher compared to control,winter rapeseed; [5],20%
same,"chlorophyll content, differences between the tested objects",winter rapeseed,no differences were observed
same,more biomass (dry weight) compared to control,winter rapeseed,34%
same,more biomass (fresh weight) compared to control,winter rapeseed,36%
same,more aboveground dry matter compared to control,winter rapeseed; only the stimulant,42%
same,more aboveground dry matter compared to control,winter rapeseed; with fungicide protection,38%
same,"more dry weight compared to control, on average",winter rapeseed,32%
same,"more fresh weight compared to control, on average",winter rapeseed,28%
same,weight of one thousand seeds higher compared to control,winter rapeseed,10%
same,more chlorophyll in the leaves (SPAD) compared to control,winter rapeseed; [6],5%
same,more chlorophyll in the leaves (SPAD) compared to control,winter rapeseed; [7],7%
same,more chlorophyll in the leaves (SPAD) compared to control,winter rapeseed; [8],6%
same,more chlorophyll in the leaves (SPAD) compared to control,winter rapeseed; [9],5%
same,seed yields higher compared to control,winter rapeseed; [10],10%
same,Average dry mass,broccoli; 50 mg/L,0.6 b g
same,Average fresh mass,broccoli; 50 mg/L,6.8 b g
same,"Average plant height, initial height, before first treatment",broccoli; 50 mg/L,37.6 b mm
same,"Average plant height, second treatment",broccoli; 50 mg/L,146.4 a mm
same,"Average plant height, third treatment",broccoli; 50 mg/L,178.5 a mm
same,Plant height increase,broccoli; 50 mg/L,140.9 a mm
same,Average dry mass,broccoli; [11],0.6 b g
same,Average fresh mass,broccoli; [11],6.7 b g
same,"Average plant height, initial height, before first treatment",broccoli; [11],36.5 a mm
same,"Average plant height, second treatment",broccoli; [11],146.0 a mm
same,"Average plant height, third treatment",broccoli; [11],179.5 a mm
same,Plant height increase,broccoli; [11],143.0 a mm
